Columns and labels:
[1] = biological target: T1, EKC/KEOPS complex subunit TP53RK (Homo sapiens) (UniProt Q96S44); test: Selectivity interaction (Kinase panel (KiNativ target engagement assay in Jurkat cells)) EUB0001635a TP53RK; assay type: cell-based; settings: Selectivity number of off-targets 0.0, Selectivity number of targets 233.0, Source Knowledge https://www.sciencedirect.com/science/article/pii/S2451945619300674?via%3Dihub, at 1 µM
T1 sequence (whole entry): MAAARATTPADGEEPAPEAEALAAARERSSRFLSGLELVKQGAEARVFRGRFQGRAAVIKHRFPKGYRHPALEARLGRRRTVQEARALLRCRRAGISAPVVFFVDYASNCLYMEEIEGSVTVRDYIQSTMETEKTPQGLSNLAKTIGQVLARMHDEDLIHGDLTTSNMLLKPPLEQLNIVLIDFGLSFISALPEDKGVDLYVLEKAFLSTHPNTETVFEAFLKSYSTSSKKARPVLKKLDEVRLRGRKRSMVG

[2] = biological target: SRSF protein kinase 2 (Homo sapiens) (UniProt P78362); test: Selectivity interaction (KinomeScan (DiscoverX)) EUB0000045b SRPK2
Sequence of SRSF protein kinase 2 (Homo sapiens) (P78362 whole entry, looked up): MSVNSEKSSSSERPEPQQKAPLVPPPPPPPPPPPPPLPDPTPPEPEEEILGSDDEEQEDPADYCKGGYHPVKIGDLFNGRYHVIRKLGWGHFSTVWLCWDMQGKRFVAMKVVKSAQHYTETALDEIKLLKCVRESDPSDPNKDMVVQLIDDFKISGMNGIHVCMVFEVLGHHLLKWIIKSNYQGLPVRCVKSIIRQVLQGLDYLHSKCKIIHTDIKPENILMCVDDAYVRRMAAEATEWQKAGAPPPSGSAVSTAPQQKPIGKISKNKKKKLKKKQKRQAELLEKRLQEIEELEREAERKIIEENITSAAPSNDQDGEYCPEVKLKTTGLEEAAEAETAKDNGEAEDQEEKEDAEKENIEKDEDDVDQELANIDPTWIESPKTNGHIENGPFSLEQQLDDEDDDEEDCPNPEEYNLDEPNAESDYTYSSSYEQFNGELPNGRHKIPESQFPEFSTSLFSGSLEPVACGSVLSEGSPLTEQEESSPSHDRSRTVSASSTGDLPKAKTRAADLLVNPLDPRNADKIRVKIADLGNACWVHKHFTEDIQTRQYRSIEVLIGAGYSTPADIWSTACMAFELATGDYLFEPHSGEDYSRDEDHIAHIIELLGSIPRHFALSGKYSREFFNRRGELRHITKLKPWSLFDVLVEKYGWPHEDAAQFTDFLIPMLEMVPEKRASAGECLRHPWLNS

[3] = biological target: Ephrin type-A receptor 2 (Homo sapiens) (UniProt P29317); test: Selectivity interaction (Kinase panel (Z-LYTE Assay)) EUB0001632a EPHA2; settings: at 10 µM
[4] = biological target: T2, Serine/threonine-protein kinase Nek1 (Homo sapiens) (UniProt Q96PY6); test: Selectivity interaction (Kinase panel (Eurofins)) EUB0001564a NEK1; settings: at 1 µM
T2 sequence (whole entry): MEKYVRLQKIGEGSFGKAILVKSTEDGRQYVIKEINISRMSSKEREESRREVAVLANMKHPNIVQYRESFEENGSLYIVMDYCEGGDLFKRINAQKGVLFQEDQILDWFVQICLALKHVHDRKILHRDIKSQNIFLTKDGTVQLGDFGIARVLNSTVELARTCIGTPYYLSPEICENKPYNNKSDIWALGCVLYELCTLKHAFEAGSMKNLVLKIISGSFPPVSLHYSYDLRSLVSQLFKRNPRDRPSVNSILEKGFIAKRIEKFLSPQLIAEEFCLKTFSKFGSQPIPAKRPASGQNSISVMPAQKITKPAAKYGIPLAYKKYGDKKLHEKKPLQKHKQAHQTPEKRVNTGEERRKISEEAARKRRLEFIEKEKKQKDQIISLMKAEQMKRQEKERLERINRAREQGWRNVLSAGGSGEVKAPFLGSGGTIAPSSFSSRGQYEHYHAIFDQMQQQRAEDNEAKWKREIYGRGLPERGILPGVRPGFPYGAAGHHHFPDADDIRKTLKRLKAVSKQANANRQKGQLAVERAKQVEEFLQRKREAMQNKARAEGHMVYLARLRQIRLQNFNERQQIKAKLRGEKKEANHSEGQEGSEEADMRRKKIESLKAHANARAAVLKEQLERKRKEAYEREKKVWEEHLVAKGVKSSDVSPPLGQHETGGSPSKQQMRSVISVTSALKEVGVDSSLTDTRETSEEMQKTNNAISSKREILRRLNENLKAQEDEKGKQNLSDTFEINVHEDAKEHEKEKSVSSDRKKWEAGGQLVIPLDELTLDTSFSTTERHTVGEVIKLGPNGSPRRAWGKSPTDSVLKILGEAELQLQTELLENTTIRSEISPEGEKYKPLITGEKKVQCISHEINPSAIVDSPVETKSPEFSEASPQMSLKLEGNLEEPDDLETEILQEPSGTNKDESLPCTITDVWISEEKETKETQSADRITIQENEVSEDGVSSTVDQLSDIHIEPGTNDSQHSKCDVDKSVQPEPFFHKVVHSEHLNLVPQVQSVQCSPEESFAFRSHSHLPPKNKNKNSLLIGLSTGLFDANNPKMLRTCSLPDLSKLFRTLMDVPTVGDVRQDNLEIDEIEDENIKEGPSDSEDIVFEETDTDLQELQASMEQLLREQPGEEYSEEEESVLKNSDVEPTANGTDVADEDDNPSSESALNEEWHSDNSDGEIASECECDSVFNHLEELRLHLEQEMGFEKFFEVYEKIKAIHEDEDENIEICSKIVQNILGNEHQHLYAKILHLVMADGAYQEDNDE

[5] = biological target: Non-receptor tyrosine-protein kinase TYK2 (Homo sapiens, UniProt P29597); test: Selectivity interaction (Kinase panel (Carna Biosciences)) EUB0001542aTs TYK2; settings: at 1 µM
Sequence of Non-receptor tyrosine-protein kinase TYK2 (P29597 whole entry): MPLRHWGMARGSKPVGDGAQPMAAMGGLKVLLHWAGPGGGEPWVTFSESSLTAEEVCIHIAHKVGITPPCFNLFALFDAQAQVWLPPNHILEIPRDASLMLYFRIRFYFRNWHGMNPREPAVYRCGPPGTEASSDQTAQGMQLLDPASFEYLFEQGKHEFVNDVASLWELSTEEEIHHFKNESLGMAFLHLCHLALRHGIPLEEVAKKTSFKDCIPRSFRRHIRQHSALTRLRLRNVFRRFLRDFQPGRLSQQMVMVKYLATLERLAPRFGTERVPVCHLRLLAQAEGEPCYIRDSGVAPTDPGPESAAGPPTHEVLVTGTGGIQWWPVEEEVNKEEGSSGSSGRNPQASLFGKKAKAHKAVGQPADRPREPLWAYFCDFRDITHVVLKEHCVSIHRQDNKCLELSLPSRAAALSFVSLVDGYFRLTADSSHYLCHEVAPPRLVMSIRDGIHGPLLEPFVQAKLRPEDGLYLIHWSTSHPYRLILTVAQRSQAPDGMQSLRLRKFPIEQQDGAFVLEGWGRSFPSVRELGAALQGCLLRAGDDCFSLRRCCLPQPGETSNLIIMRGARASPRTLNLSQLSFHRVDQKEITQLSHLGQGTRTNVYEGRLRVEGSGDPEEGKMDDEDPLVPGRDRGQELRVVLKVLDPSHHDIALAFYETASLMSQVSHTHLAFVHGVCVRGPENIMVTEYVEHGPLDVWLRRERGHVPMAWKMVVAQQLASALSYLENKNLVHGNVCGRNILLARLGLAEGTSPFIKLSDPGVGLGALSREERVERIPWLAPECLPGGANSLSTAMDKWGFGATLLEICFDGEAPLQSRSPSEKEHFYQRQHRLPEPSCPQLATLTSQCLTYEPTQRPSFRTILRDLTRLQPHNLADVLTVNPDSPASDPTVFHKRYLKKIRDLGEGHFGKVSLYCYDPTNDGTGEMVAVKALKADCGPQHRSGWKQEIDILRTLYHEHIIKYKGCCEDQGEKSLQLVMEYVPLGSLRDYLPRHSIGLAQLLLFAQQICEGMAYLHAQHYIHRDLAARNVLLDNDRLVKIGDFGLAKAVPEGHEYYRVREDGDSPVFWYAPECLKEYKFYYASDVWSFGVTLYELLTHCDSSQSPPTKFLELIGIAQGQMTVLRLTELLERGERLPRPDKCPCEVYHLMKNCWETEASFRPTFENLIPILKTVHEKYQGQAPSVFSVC

[6] = biological target: Tyrosine-protein kinase CSK (Homo sapiens) (UniProt P41240); test: Selectivity interaction (ActivX KiNativ screen (ex vivo kinase selectivity in human PBMCs)) EUB0001619a CSK; assay type: cell-based; settings: PBMC, at 1 µM
Sequence of Tyrosine-protein kinase CSK (Homo sapiens) (P41240 2-450 limits assumed): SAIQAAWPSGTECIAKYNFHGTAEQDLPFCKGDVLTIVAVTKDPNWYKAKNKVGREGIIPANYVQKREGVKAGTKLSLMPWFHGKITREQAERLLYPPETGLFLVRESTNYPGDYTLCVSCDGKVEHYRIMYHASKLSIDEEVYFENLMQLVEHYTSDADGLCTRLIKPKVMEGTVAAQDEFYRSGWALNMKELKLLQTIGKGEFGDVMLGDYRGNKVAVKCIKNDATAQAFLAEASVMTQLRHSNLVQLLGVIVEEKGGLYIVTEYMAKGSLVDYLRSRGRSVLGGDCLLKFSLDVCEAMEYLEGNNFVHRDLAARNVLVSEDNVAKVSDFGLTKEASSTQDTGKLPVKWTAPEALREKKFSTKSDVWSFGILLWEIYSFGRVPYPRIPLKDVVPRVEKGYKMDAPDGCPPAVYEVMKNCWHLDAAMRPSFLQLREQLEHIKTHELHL

[7] = biological target: 1-phosphatidylinositol 3-phosphate 5-kinase (Homo sapiens) (UniProt Q9Y2I7); test: Selectivity interaction (ActivX KiNativ screen (ex vivo kinase selectivity in human PBMCs)) EUB0001619a PIKFYVE; assay type: cell-based; settings: PBMC, at 1 µM
Sequence of 1-phosphatidylinositol 3-phosphate 5-kinase (Homo sapiens) (Q9Y2I7 whole entry): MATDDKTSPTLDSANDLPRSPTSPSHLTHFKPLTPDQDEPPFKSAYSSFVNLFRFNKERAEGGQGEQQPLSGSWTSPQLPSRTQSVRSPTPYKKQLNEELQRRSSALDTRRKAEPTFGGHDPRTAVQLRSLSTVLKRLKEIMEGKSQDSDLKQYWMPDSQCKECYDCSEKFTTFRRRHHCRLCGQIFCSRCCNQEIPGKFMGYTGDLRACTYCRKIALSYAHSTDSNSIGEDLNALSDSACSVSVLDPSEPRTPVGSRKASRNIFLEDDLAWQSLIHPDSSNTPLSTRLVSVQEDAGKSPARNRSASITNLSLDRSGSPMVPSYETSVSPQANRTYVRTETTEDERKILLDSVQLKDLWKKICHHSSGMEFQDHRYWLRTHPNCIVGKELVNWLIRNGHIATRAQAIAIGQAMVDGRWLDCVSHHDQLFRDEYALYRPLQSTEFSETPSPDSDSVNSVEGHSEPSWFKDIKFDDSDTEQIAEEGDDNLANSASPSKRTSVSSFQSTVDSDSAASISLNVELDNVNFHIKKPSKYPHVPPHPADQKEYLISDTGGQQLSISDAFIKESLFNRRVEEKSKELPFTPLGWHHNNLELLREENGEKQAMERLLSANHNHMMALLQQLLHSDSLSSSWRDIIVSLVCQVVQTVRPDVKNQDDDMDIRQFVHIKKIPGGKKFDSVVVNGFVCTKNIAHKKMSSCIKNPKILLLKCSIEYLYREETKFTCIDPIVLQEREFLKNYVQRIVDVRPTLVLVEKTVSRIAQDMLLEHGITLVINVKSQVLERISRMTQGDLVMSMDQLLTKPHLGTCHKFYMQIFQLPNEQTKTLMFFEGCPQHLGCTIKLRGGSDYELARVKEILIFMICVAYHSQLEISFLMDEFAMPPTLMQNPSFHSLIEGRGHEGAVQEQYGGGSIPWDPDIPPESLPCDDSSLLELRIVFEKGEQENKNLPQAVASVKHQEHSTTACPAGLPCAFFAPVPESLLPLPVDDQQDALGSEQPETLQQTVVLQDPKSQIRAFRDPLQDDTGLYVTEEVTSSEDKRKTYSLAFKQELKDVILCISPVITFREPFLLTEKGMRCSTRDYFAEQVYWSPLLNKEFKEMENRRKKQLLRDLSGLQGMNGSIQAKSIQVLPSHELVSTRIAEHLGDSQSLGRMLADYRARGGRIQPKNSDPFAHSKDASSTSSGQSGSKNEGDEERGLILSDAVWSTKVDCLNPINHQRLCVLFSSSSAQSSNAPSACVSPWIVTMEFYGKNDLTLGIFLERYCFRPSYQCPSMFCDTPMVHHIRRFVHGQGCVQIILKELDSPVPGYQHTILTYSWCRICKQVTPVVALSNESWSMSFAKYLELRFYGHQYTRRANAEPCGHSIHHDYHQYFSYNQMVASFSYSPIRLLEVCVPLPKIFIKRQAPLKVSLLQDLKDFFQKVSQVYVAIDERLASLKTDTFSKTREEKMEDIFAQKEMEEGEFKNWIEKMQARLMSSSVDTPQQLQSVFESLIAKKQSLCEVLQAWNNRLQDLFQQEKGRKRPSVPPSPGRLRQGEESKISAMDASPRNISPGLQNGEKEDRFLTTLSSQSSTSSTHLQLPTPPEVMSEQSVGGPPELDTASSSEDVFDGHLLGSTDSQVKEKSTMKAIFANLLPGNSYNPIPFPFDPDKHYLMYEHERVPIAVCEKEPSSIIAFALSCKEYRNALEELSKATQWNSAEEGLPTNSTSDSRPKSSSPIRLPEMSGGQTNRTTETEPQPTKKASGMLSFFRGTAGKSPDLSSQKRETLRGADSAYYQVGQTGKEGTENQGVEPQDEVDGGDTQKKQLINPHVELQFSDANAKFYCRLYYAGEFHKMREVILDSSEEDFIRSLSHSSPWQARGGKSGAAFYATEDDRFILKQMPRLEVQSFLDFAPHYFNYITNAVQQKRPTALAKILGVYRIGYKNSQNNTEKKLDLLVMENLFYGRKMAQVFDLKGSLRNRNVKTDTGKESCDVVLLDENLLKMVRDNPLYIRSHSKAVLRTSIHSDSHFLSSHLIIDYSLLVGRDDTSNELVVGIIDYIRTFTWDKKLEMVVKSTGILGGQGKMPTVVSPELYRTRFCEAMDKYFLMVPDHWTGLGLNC

[8] = biological target: Myosin light chain kinase, smooth muscle (Homo sapiens, UniProt Q15746); test: Selectivity interaction (Kinase panel (Invitrogen)) EUB0000639a MYLK; settings: at 200 nM
[9] = biological target: Mitogen-activated protein kinase 8 (Homo sapiens, UniProt P45983); test: Selectivity interaction (KinomeScan (DiscoverX)) EUB0000655a MAPK8; settings: at 10 µM
Sequence of Mitogen-activated protein kinase 8 (P45983 whole entry): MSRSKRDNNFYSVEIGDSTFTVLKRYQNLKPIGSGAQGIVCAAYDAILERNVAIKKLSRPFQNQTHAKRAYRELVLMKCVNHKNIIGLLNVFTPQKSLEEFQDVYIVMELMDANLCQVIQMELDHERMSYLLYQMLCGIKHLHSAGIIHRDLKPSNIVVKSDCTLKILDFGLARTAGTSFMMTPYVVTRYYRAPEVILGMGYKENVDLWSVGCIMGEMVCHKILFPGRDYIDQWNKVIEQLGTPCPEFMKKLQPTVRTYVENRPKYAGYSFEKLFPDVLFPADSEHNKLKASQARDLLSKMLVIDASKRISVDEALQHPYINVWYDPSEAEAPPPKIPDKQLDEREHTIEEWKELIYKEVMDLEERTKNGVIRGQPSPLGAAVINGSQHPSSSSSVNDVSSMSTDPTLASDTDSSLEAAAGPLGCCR

[10] = biological target: T3, Interleukin-1 receptor-associated kinase 3 (Homo sapiens) (UniProt Q9Y616); settings: at 10 µM
T3 sequence (whole entry): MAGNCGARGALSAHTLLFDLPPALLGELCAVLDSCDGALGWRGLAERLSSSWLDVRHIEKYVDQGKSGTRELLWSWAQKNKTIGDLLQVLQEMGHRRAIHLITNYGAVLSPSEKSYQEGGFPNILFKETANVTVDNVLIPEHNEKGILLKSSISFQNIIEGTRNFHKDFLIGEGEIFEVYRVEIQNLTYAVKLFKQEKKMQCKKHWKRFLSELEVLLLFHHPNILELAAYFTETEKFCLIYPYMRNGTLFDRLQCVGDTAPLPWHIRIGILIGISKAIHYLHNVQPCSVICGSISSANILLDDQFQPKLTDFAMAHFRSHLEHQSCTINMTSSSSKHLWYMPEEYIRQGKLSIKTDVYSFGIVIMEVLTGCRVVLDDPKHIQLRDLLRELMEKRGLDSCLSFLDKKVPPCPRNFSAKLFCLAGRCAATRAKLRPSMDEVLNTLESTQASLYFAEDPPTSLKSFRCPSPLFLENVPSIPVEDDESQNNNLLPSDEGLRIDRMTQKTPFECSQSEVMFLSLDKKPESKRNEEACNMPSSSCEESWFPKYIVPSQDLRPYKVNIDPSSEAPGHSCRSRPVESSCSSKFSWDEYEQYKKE

[11] = biological target: Insulin receptor (Homo sapiens, UniProt P06213); test: Selectivity interaction (Ambit KINOMEscan and KiNATiv profiling in Jurkat cells) EUB0000090b INSR; assay type: cell-based; settings: at 1 µM

SMILES: C=CC(=O)Nc1ccc(C(=O)Nc2[nH]nc3c2CN(C(=O)N[C@H](CN(C)C)c2ccccc2)C3(C)C)cc1
- % of engagement [1]: -14.9%

SMILES: C=CC(=O)Nc1cc(-n2c(=O)ccc3cnc4ccc(-c5ccc(NS(C)(=O)=O)cc5)cc4c32)ccc1C
- % of control ([2]; at 1 µM): 100%
- % of control ([2]; at 10 µM): 81%

SMILES: Cn1cc(-n2cnc3c(NCc4nc5cc(Cl)c(Cl)cc5[nH]4)nc(N4CCOCC4)nc32)cn1
- % of control [3]: 14.4%

SMILES: CC[C@@H](Nc1c(C#N)c(-c2ccc(-c3cccc(C)c3F)cc2)nc2cnccc12)C(=O)O [BAY-091]
- % of inhibition [4]: 24.4%

SMILES: Cn1cc(Nc2nccc(N3CC4CCC(C3)N4C(=O)[C@@H]3CC3(F)F)n2)cn1
- % of inhibition [5]: 101%

SMILES: N#Cc1cccc(-c2c[nH]c3ncnc(N4CCOCC4)c23)c1
- % of inhibition [6]: -2%
- % of inhibition [7]: 22%

SMILES: CC[C@@H]1[C@H](F)C(=O)N[C@@H]1COc1nccc2cc(C(N)=O)c(OC)cc12 [ZIMLOVISERTIB]
- % of inhibition [8]: 1%

SMILES: CN(C)CCOc1ccc(-c2nc(-c3ccncc3)c(-c3ccc4c(c3)CC/C4=N\O)[nH]2)cc1
- % of control [9]: 92%

SMILES: CCN(CC)CCCCNc1ncc2cc(-c3cc(OC)cc(OC)c3)c(NC(=O)NC(C)(C)C)nc2n1
- % of control [10]: 100%

SMILES: CN(C)C/C=C/C(=O)Nc1ccc(C(=O)N2CCCC(Nc3ncc(Cl)c(-c4c[nH]c5ccccc45)n3)C2)cc1 (configuration not stated)
- % of control [11]: 100%
